*1 amine or outer side, *2 acyl side, *3 side chain or, on linkers, in order; H or OH if unused. Where a SMILES comes first, the peptide text is derived from it. Bridges are numbered along the chain shown (N, C = ends). [ ]: non-standard residue; d: D form. ξ: configuration not given here. Oic = O=C(O)[C@@H]1C[C@@H]2CCCC[C@@H]2N1; X5 = NCCC[C@H](N[*:1])C(=O)NC(=O)[*:2]; Arg(Me) = CNC(=N)NCCC[C@H](N)C(=O)O; Trx = NC[C@H]1CC[C@H](C(=O)O)CC1; tBuAla = CC(C)(C)C[C@H](N)C(=O)O; Pen = CC(C)(S)[C@H](N)C(=O)O; ξIle = CC[C@H](C)C(N)C(=O)O; NMeC = CN[C@@H](CS)C(=O)O; Orn = NCCC[C@H](N)C(=O)O; Dab = NCC[C@H](N)C(=O)O; Dap = NC[C@H](N)C(=O)O; Ahx = NCCCCCC(=O)O
Legend:
human MASP2 = human MASP2 (Homo sapiens (Human), UniProt O00187); assay: Biochemical human MASP2 assay (FRET substrate); conditions: Average IC50; recombinant human MASP2; read-out: human MASP2 IC50
Chain of human MASP2 (O00187 other isoform, or with tags, fused parts or gaps): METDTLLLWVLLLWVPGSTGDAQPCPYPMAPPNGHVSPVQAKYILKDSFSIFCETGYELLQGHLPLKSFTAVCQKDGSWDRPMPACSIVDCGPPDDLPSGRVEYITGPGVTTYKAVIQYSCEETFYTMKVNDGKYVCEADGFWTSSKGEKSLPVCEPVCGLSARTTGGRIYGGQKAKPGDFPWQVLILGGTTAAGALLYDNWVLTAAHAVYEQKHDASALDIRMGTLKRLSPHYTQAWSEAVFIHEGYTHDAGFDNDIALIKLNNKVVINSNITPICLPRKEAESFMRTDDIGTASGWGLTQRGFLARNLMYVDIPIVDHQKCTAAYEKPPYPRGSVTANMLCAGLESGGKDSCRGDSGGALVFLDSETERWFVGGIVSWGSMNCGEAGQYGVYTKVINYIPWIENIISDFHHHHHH
Method in brief: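 IC50 came from % inhibition across compound concentrations, with fluorescence (ex 340 nm, em 490 nm) read after 60-120 min at 32 C. Substrate was a DABCYL FRET peptide, added as a 60 μM solution, cleaved by HEK293-expressed, Ni-NTA-purified mature recombinant human MASP2.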

human MASP1 = human MASP1 (Homo sapiens (Human), UniProt P48740); assay: Biochemical human MASP1 assay (FRET substrate); conditions: Average IC50; recombinant human MASP1; read-out: human MASP1 IC50
Chain of human MASP1 (P48740 other isoform, or with tags, fused parts or gaps): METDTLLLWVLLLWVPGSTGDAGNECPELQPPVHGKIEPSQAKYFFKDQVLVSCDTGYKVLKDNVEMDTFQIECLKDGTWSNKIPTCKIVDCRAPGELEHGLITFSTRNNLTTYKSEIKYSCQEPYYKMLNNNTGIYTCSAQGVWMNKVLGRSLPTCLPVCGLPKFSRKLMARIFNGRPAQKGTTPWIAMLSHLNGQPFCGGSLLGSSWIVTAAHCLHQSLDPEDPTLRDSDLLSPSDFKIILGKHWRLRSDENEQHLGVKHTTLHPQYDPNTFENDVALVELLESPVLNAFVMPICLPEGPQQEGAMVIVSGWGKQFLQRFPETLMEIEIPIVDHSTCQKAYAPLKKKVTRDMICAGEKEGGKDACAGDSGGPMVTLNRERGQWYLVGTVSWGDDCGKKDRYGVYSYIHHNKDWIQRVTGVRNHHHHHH
Method in brief: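 IC50 derived from % inhibition versus compound concentration, with fluorescence increase read at 320/420 nm after 60-120 min at 32 C. Enzyme: HEK293-secreted, His-tagged human MASP1 fragment 297-699 at 20 nM in HEPES pH 8,0 buffer with NaCl, CHAPS, glutathione; substrate ABZ-peptide-Lys(Dnp)-NH2 added as 20 μM solution.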

[1] = system: Human C3-DEPOSITION SERUM; assay: C3 deposition assay, human serum on mannan-coated plates; assay type: biochemical; conditions: Average IC50, read-out: Human C3-DEPOSITION SERUM IC50
Description: 3. C3 Deposition Assay (Human, Rat, Mouse, Dog, Pig))
The C3 deposition assay was conducted essentially as described (reference). Multiwell plates (Greiner-Nunc 384 Maxi Sorp #464718) were coated over night with Mannan from Saccharomyces cerevisiae (Sigma M7504, 10 μg/mL in 0.05 M carbonate-bicarbonate buffer, pH 9.6) at 4° C. Wells were washed three times with TBS and subsequently incubated for 2 hours with 50 μL of 1% bovine serum albumin (BSA) in Tris-buffered saline (TBS) at 37° C. in order to block non-specific binding. After this step and each of the following incubation steps wells were washed three times with C3 wash buffer (TBS; 0.05% Tween 20; 5 mM CaCl2). […] When appropriately developed the color reaction was stopped by addition of 25 μL of stop solution (Sigma S5814) and quantified on a photometer by measuring absorption at a wavelength of 450 nm. Antibodies were diluted in C3 wash buffer supplemented with 0.5% BSA.

Structure (SMILES): CC[C@H](C)[C@@H]1NC(=O)[C@H](CN)NC(=O)[C@@H](N)CNC(=O)[C@@H]2CCCN2C(=O)[C@H]([C@@H](C)CC)NC(=O)[C@H]2NC(=O)[C@H]([C@@H](C)CC)NC(=O)[C@@H]3C[C@@H]4CCCC[C@@H]4N3C(=O)[C@@H]3CCCN3C(=O)[C@H](CC(C)C)NC(=O)[C@H](CO)NC(=O)[C@H](CCCNC(=N)N)NC(=O)[C@H](CO)NC(=O)[C@H](CSSC2(C)C)NC1=O [Example 86] (H-[Dap][Dap]ICSRSLP[Oic]I[Pen]IP; lactam 1-C; disulfide 4-12)
- IC50 (human MASP2): 1000 nM
- IC50 (human MASP1): 27 nM
- IC50 [1]: 46.3 nM

Structure (SMILES): CC[C@H](C)[C@@H]1NC(=O)[C@H](C)NC(=O)CCCCCNC(=O)[C@H](CC(=O)O)NC(=O)[C@@H]2CCCN2C(=O)[C@H]([C@@H](C)CC)NC(=O)[C@@H]2CSSC[C@H](NC1=O)C(=O)N[C@@H](CO)C(=O)N[C@@H](CCCNC(=N)N)C(=O)N[C@@H](CO)C(=O)N[C@@H](CC(C)(C)C)C(=O)N1CCC[C@H]1C(=O)N1CCC[C@H]1C(=O)N[C@@H]([C@@H](C)CC)C(=O)N2C [Example 32] (cyclo(AICSRS[tBuAla]PPI[NMeC]IPD[Ahx]); disulfide 3-11)
- IC50 (human MASP2): 63.5 nM
- IC50 (human MASP1): 22 nM
- IC50 [1]: 121 nM

Structure (SMILES): CC[C@H](C)[C@@H]1NC(=O)CNC(=O)CNC(=O)[C@H](C)NC(=O)[C@H](CC(=O)O)NC(=O)[C@@H]2CCCN2C(=O)[C@H]([C@@H](C)CC)NC(=O)[C@H]2NC(=O)[C@H]([C@@H](C)CC)NC(=O)[C@@H]3CCCN3C(=O)[C@@H]3CCCN3C(=O)[C@H](CC(C)(C)C)NC(=O)[C@H](CO)NC(=O)[C@H](CCCNC(=N)N)NC(=O)[C@H](CO)NC(=O)[C@H](CSSC2(C)C)NC1=O [Example 29] (cyclo(AGGICSRS[tBuAla]PPI[Pen]IPD); disulfide 5-13)
- IC50 (human MASP2): 68 nM
- IC50 (human MASP1): 8.6 nM
- IC50 [1]: 84.6 nM

Structure (SMILES): CC[C@H](C)C1NC(=O)[C@@H]2CSSC[C@H](NC(=O)[C@H]([C@@H](C)CC)NC(=O)[C@H](C)NC(=O)[C@@H](N)CCCNC(=O)C[C@@H](C(N)=O)NC(=O)[C@@H]3CCCN3C1=O)C(=O)N[C@@H](CO)C(=O)N[C@@H](CCCNC(=N)N)C(=O)N[C@@H](CO)C(=O)N[C@@H](CC(C)(C)C)C(=O)N1CCC[C@H]1C(=O)N1CCC[C@H]1C(=O)N[C@@H]([C@@H](C)CC)C(=O)N2C (stereo partly drawn) [Example 44] (H-[Orn]AICSRS[tBuAla]PPI[NMeC][ξIle]PD-NH2; lactam 1-15; disulfide 4-12)
- IC50 (human MASP2): 230 nM
- IC50 (human MASP1): 4.7 nM
- IC50 [1]: 23.7 nM

Structure (SMILES): CC[C@H](C)[C@@H]1NC(=O)CNC(=O)[C@H](CN)NC(=O)[C@H](CN)NC(=O)[C@H](CC(=O)O)NC(=O)[C@@H]2CCCN2C(=O)[C@H]([C@@H](C)CC)NC(=O)[C@@H]2CSSC[C@H](NC1=O)C(=O)N[C@@H](CO)C(=O)N[C@@H](CCCNC(=N)N)C(=O)N[C@@H](CO)C(=O)N[C@@H](CC(C)C)C(=O)N1CCC[C@H]1C(=O)N1CCC[C@H]1C(=O)N[C@@H]([C@@H](C)CC)C(=O)N2 [Example 23] (cyclo(CIPD[Dap][Dap]GICSRSLPPI); disulfide 1-9)
- IC50 (human MASP2): 20 nM
- IC50 (human MASP1): 180 nM
- IC50 [1]: 121 nM

Structure (SMILES): CC[C@H](C)[C@@H]1NC(=O)[C@H](C)NC(=O)CCCCCNC(=O)C[C@@H](C(N)=O)NC(=O)[C@@H]2CCCN2C(=O)[C@H]([C@@H](C)CC)NC(=O)[C@H]2NC(=O)[C@H]([C@@H](C)CC)NC(=O)[C@@H]3C[C@@H]4CCCC[C@@H]4N3C(=O)[C@H]3CCCN3C(=O)[C@H](CC(C)C)NC(=O)[C@H](CO)NC(=O)[C@H](CCCNC(=N)N)NC(=O)[C@H](CO)NC(=O)[C@H](CSSC2(C)C)NC1=O [Example 43]
- IC50 (human MASP2): 120 nM
- IC50 (human MASP1): 6.7 nM
- IC50 [1]: 28.2 nM

Structure (SMILES): CC[C@H](C)[C@@H]1NC(=O)[C@H]2NC(=O)[C@H]([C@@H](C)CC)NC(=O)[C@@H]3CCCN3C(=O)[C@@H]3CCCN3C(=O)[C@H](CC(C)(C)C)NC(=O)[C@H](CO)NC(=O)[C@H](CCCNC(=N)N)NC(=O)[C@H](CO)NC(=O)[C@H](CSSC2(C)C)NC(=O)[C@H]([C@@H](C)CC)NC(=O)[C@@H](N)CCCCNC1=O [Example 67, N-{3-[(5aS,11S,14S,17S,20S,23R,26S,29S,36S,39R,42S,44aS)-29-amino-26,36,42-tri[(2S)-butan-2-yl]-11-(2,2-dimethylpropyl)-14,20-bis(hydroxymethyl)-45,45-dimethyl-5,10,13,16,19,22,25,28,35,38,41,44-dodecaoxodotetracontahydro-1H,5H-23,39-(methanodithiomethano)dipyrrolo[2,1-1:2′,1′-o][1,4,7,10,13,16,19,22,25,28,31,34]dodecaazacyclotetracontin-17-yl]propyl}guanidine] (H-KICSRS[tBuAla]PPI[Pen]I; lactam 1-C; disulfide 3-11)
- IC50 (human MASP2): 150 nM
- IC50 (human MASP1): 3.25 nM
- IC50 [1]: 19.1 nM

Structure (SMILES): CC[C@H](C)[C@@H]1NC(=O)[C@H](C)NC(=O)CCCCCNC(=O)[C@H](CC(=O)O)NC(=O)[C@@H]2CCCN2C(=O)[C@H]([C@@H](C)CC)NC(=O)[C@@H]2CSSC[C@H](NC1=O)C(=O)N[C@@H](CO)C(=O)N[C@@H](CCCNC(=N)N)C(=O)N[C@@H](CO)C(=O)N[C@@H](CC(C)(C)C)C(=O)N1CCC[C@H]1C(=O)N1CCC[C@H]1C(=O)N[C@@H]([C@@H](C)CC)C(=O)N2 [Example 46] (cyclo(AICSRS[tBuAla]PPICIPD[Ahx]); disulfide 3-11)
- IC50 (human MASP2): 89 nM
- IC50 (human MASP1): 56 nM
- IC50 [1]: 228 nM

Structure (SMILES): CC[C@H](C)[C@@H]1NC(=O)CCCNC(=O)[C@H](CC(=O)O)NC(=O)[C@@H]2CCCN2C(=O)[C@H]([C@@H](C)CC)NC(=O)[C@@H]2CSSC[C@H](NC1=O)C(=O)N[C@@H](CO)C(=O)N[C@@H](CCCNC(=N)N)C(=O)N[C@@H](CO)C(=O)N[C@@H](CC(C)(C)C)C(=O)N1CCC[C@H]1C(=O)N1CCC[C@H]1C(=O)N[C@@H]([C@@H](C)CC)C(=O)N2C [Example 36]
- IC50 (human MASP2): 110 nM
- IC50 (human MASP1): 8.7 nM
- IC50 [1]: 8.68 nM

Structure (SMILES): CC[C@H](C)[C@@H]1NC(=O)NC(=O)[C@H](CCCN)NC(=O)[C@@H]2CCCN2C(=O)[C@H]([C@@H](C)CC)NC(=O)[C@H]2NC(=O)[C@H]([C@@H](C)CC)NC(=O)[C@@H]3CCCN3C(=O)[C@@H]3CCCN3C(=O)[C@H](CC(C)(C)C)NC(=O)[C@H](CO)NC(=O)[C@H](CCCNC(=N)NC)NC(=O)[C@H](CO)NC(=O)[C@H](CSSC2(C)C)NC1=O [Example 96] (cyclo([Arg(Me)]S[tBuAla]PPI[Pen]IP[X5]ICS); disulfide 7-12)
- IC50 (human MASP2): 400 nM
- IC50 (human MASP1): 23 nM
- IC50 [1]: 103 nM

Structure (SMILES): CC[C@H](C)[C@@H]1NC(=O)CNC(=O)[C@H]2CC[C@@H](CC2)CNC(=O)CNC(=O)C[C@@H](C(N)=O)NC(=O)[C@@H]2CCCN2C(=O)[C@H]([C@@H](C)CC)NC(=O)[C@@H]2CSSC[C@H](NC1=O)C(=O)N[C@@H](CO)C(=O)N[C@@H](CCCNC(=N)N)C(=O)N[C@@H](CO)C(=O)N[C@@H](CC(C)(C)C)C(=O)N1CCC[C@H]1C(=O)N1CCC[C@H]1C(=O)N[C@@H]([C@@H](C)CC)C(=O)N2C [Example 69, (1R,4S,10S,13S,21S,24S,30S,33R,36S,39S,42S,45S,51S,57S,60S)-4,30,60-tri[(2S)-butan-2-yl]-39-(3-carbamimidamidopropyl)-45-(2,2-dimethylpropyl)-36,42-bis(hydroxymethyl)-62-methyl-2,5,11,15,18,25,28,31,34,37,40,43,46,52,58,61-hexadecaoxo-64,65-dithia-3,6,12,16,19,26,29,32,35,38,41,44,47,53,59,62-hexadecaazahexacyclo[31.29.4.2^21,240.0^6,100.0^47,510.0^53,57]octahexacontane-13-carboxamide] (G[Trx]GICSRS[tBuAla]PPI[NMeC]IPD-NH2; disulfide 5-13; lactam N-16)
- IC50 (human MASP2): 190 nM
- IC50 (human MASP1): 20 nM
- IC50 [1]: 364 nM

Structure (SMILES): CC[C@H](C)[C@@H]1NC(=O)[C@H](CCN)NC(=O)[C@@H]2CCCN2C(=O)[C@H]([C@@H](C)CC)NC(=O)[C@H]2NC(=O)[C@H]([C@@H](C)CC)NC(=O)[C@@H]3CCCN3C(=O)[C@@H]3CCCN3C(=O)[C@H](CC(C)(C)C)NC(=O)[C@H](CO)NC(=O)[C@H](CCCNC(=N)N)NC(=O)[C@H](CO)NC(=O)[C@H](CSSC2(C)C)NC1=O [Example 56, N-{3-[(6S,9S,12S,15S,18R,21S,24S,26aS,32S,35R,38S,40aS,45aS)-24-(2-aminoethyl)-21,32,38-tri[(2S)-butan-2-yl]-6-(2,2-dimethylpropyl)-9,15-bis(hydroxymethyl)-46,46-dimethyl-5,8,11,14,17,20,23,26,31,34,37,40,45-tridecaoxotetratetracontahydro-1H-18,35-(methanodithiomethano)tripyrrolo[1,2-a:1′,2′-d:1″,2″-p]-[1,4,7,10,13,16,19,22,25,28,31,34,37]tridecaazacyclononatriacontin-12-yl]propyl}guanidine] (cyclo(CSRS[tBuAla]PPI[Pen]IP[Dab]I); disulfide 1-9)
- IC50 (human MASP2): 1100 nM
- IC50 (human MASP1): 86 nM
- IC50 [1]: 566 nM
